Experimental data as given in ChEMBL document CHEMBL4507275, “Data for DCP probe BI-2545” (2021).

What was measured:
[1] = molecular target: Tyrosine-protein kinase BTK (Homo sapiens) (UniProt Q06187); conditions: Compound concentration 1000.0 nM
[2] = molecular target: Serine/threonine-protein kinase PAK 1 (Homo sapiens) (UniProt Q13153); conditions: Compound concentration 1000.0 nM
[3] = molecular target: Beta-adrenergic receptor kinase 1 (Homo sapiens) (UniProt P25098); conditions: Compound concentration 1000.0 nM
[4] = molecular target: Mitogen-activated protein kinase 4 (Homo sapiens) (UniProt P31152); conditions: Compound concentration 1000.0 nM
[5] = molecular target: Cyclin-dependent kinase 4 (Homo sapiens) (UniProt P11802); conditions: Compound concentration 1000.0 nM
[6] = molecular target: 5-hydroxytryptamine receptor 6 (Homo sapiens) (UniProt P50406); conditions: Compound concentration 10.0 uM
[7] = molecular target: Serine/threonine-protein kinase 25 (Homo sapiens) (UniProt O00506); conditions: Compound concentration 1000.0 nM
[8] = molecular target: Serine/threonine-protein kinase TAO3 (Homo sapiens) (UniProt Q9H2K8); conditions: Compound concentration 1000.0 nM
[9] = molecular target: Serine/threonine-protein kinase PAK 3 (Homo sapiens) (UniProt O75914); conditions: Compound concentration 1000.0 nM
[10] = test system: ALK tyrosine kinase receptor (Homo sapiens), Q9UM73 [L1196M]; conditions: Compound concentration 1000.0 nM
[11] = molecular target: Casein kinase I isoform epsilon (Homo sapiens) (UniProt P49674); conditions: Compound concentration 1000.0 nM
[12] = molecular target: G protein-coupled receptor kinase 3 (Homo sapiens) (UniProt P35626); conditions: Compound concentration 1000.0 nM
[13] = molecular target: Tyrosine-protein kinase TXK (Homo sapiens) (UniProt P42681); conditions: Compound concentration 1000.0 nM
[14] = test system: Receptor-type tyrosine-protein kinase FLT3 (Homo sapiens), P36888 [UNDEFINED MUTATION]; conditions: Compound concentration 1000.0 nM
[15] = molecular target: Misshapen-like kinase 1 (Homo sapiens) (UniProt Q8N4C8); conditions: Compound concentration 1000.0 nM
[16] = molecular target: Cyclin-dependent kinase 9 (Homo sapiens) (UniProt P50750); conditions: Compound concentration 1000.0 nM
[17] = molecular target: Homeodomain-interacting protein kinase 3 (Homo sapiens) (UniProt Q9H422); conditions: Compound concentration 1000.0 nM
[18] = molecular target: Aurora kinase C (Homo sapiens) (UniProt Q9UQB9); conditions: Compound concentration 1000.0 nM
[19] = molecular target: Ribosomal protein S6 kinase alpha-5 (Homo sapiens) (UniProt O75582); conditions: Compound concentration 1000.0 nM
[20] = molecular target: Protein-tyrosine kinase 2-beta (Homo sapiens) (UniProt Q14289); conditions: Compound concentration 1000.0 nM
[21] = molecular target: Death-associated protein kinase 1 (Homo sapiens) (UniProt P53355); conditions: Compound concentration 1000.0 nM
[22] = molecular target: Aurora kinase A (Homo sapiens) (UniProt O14965); conditions: Compound concentration 1000.0 nM
[23] = molecular target: Mitogen-activated protein kinase 10 (Homo sapiens) (UniProt P53779); conditions: Compound concentration 1000.0 nM
[24] = molecular target: Mitogen-activated protein kinase 12 (Homo sapiens) (UniProt P53778); conditions: Compound concentration 1000.0 nM
[25] = test system: Phosphatidylinositol 4,5-bisphosphate 3-kinase catalytic subunit alpha isoform (Homo sapiens), P42336 [C420R]; conditions: Compound concentration 1000.0 nM
[26] = molecular target: Histamine H4 receptor (Homo sapiens) (UniProt Q9H3N8); conditions: Compound concentration 10.0 uM
[27] = molecular target: Tyrosine-protein kinase Blk (Homo sapiens) (UniProt P51451); conditions: Compound concentration 1000.0 nM
[28] = molecular target: Protein kinase C epsilon type (Homo sapiens) (UniProt Q02156); conditions: Compound concentration 1000.0 nM
[29] = molecular target: Fibroblast growth factor receptor 2 (Homo sapiens) (UniProt P21802); conditions: Compound concentration 1000.0 nM
[30] = molecular target: Alpha-1D adrenergic receptor (Homo sapiens) (UniProt P25100); conditions: Compound concentration 10.0 uM
[31] = molecular target: Serine/threonine-protein kinase NIM1 (Homo sapiens) (UniProt Q8IY84); conditions: Compound concentration 1000.0 nM
[32] = molecular target: Mast/stem cell growth factor receptor Kit (Homo sapiens) (UniProt P10721); conditions: Compound concentration 1000.0 nM
[33] = molecular target: RAC-gamma serine/threonine-protein kinase (Homo sapiens) (UniProt Q9Y243); conditions: Compound concentration 1000.0 nM
[34] = test system: Epidermal growth factor receptor (Homo sapiens), P00533 [UNDEFINED MUTATION]; conditions: Compound concentration 1000.0 nM
[35] = molecular target: Casein kinase II subunit alpha' (Homo sapiens) (UniProt P19784); conditions: Compound concentration 1000.0 nM
[36] = molecular target: Serine/threonine-protein kinase PLK1 (Homo sapiens) (UniProt P53350); conditions: Compound concentration 1000.0 nM
[37] = molecular target: Tyrosine-protein kinase HCK (Homo sapiens) (UniProt P08631); conditions: Compound concentration 1000.0 nM
[38] = molecular target: Myosin light chain kinase, smooth muscle (Homo sapiens) (UniProt Q15746); conditions: Compound concentration 1000.0 nM
[39] = molecular target: Wee1-like protein kinase 2 (Homo sapiens) (UniProt P0C1S8); conditions: Compound concentration 1000.0 nM
[40] = molecular target: Ribosomal protein S6 kinase alpha-4 (Homo sapiens) (UniProt O75676); conditions: Compound concentration 1000.0 nM
[41] = molecular target: Serine/threonine-protein kinase N1 (Homo sapiens) (UniProt Q16512); conditions: Compound concentration 1000.0 nM
[42] = molecular target: Mitogen-activated protein kinase kinase kinase 10 (Homo sapiens) (UniProt Q02779); conditions: Compound concentration 1000.0 nM
[43] = molecular target: Serine/threonine-protein kinase DCLK2 (Homo sapiens) (UniProt Q8N568); conditions: Compound concentration 1000.0 nM
[44] = molecular target: 5-hydroxytryptamine receptor 2A (Homo sapiens, UniProt P28223); conditions: Compound concentration 10.0 uM
[45] = molecular target: Serine/threonine-protein kinase ULK2 (Homo sapiens) (UniProt Q8IYT8); conditions: Compound concentration 1000.0 nM
[46] = molecular target: Serine/threonine-protein kinase DCLK3 (Homo sapiens) (UniProt Q9C098); conditions: Compound concentration 1000.0 nM

5-hydroxytryptamine receptor 2A, sequence (P28223 whole entry): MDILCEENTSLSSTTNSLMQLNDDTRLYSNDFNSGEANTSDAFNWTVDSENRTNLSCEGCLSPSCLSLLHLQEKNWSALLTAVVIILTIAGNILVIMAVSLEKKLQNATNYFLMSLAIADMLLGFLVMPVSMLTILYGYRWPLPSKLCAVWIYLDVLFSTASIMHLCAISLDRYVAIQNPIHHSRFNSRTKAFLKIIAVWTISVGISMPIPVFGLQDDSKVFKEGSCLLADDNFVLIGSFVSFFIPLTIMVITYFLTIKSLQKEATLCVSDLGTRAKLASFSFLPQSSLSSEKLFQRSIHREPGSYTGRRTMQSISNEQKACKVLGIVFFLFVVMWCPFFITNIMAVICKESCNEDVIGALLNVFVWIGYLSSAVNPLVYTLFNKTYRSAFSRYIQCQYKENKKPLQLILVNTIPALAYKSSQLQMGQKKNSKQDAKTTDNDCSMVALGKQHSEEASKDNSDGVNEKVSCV
Tyrosine-protein kinase BTK (Homo sapiens), sequence (Q06187 whole entry): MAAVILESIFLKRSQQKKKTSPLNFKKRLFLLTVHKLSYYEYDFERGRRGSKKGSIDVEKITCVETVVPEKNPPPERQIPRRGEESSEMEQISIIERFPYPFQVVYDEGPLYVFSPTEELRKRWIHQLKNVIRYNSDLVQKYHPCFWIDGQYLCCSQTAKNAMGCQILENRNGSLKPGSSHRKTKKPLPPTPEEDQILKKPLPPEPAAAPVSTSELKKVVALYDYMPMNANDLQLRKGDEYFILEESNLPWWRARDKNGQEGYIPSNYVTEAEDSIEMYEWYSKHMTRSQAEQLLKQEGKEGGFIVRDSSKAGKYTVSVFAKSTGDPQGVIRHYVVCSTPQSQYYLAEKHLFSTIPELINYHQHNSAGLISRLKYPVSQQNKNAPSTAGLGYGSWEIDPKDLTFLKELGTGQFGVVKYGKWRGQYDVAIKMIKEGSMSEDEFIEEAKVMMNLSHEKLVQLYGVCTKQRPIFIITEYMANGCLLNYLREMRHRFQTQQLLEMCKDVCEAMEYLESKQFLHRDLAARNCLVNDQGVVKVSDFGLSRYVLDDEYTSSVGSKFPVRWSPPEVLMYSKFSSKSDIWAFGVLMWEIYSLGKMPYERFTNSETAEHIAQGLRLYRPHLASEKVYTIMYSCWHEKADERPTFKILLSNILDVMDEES
ALK tyrosine kinase receptor (Homo sapiens), Q9UM73 [L1196M], sequence (Q9UM73 whole entry L1196M, looked up, canonical isoform): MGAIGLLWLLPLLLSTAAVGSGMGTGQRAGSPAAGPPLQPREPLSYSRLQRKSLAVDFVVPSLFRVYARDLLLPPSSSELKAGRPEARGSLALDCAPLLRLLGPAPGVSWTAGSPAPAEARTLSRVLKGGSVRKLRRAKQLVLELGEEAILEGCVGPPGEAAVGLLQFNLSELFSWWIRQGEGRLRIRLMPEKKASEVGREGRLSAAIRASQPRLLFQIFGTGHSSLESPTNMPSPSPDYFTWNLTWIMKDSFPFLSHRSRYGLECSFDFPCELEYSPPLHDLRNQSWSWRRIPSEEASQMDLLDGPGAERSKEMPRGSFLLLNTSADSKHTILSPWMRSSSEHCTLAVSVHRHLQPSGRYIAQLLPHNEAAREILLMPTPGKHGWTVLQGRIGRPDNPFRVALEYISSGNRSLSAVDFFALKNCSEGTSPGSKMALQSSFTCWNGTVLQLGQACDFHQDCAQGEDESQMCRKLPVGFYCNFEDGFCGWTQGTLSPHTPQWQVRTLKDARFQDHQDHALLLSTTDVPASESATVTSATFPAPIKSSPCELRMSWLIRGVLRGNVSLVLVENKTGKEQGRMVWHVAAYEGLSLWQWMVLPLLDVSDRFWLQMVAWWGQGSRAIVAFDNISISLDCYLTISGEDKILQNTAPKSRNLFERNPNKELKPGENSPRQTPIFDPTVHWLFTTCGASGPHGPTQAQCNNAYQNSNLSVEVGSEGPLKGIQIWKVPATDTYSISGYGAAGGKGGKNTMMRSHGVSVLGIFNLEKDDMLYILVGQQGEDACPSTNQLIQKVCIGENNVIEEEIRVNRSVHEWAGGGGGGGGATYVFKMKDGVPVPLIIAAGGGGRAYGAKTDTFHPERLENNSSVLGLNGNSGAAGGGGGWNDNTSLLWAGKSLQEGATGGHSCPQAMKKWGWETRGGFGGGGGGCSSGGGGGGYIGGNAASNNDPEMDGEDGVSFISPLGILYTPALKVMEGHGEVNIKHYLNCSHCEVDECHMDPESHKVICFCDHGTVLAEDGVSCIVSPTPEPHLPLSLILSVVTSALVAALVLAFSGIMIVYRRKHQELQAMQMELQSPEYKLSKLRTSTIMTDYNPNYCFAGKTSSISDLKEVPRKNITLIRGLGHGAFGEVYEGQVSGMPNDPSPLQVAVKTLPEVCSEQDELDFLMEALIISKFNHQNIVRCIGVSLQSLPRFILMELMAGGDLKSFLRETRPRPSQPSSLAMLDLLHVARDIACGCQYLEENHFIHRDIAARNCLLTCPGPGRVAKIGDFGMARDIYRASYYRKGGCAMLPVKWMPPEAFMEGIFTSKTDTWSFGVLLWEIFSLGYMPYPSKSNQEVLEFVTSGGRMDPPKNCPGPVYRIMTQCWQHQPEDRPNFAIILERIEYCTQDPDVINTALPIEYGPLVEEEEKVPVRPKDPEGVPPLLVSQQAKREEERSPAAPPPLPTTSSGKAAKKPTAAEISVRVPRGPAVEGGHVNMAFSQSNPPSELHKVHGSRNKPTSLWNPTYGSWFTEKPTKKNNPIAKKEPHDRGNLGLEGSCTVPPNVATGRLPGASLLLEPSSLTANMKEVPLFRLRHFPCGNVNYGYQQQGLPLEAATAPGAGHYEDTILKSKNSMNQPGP
Homeodomain-interacting protein kinase 3 (Homo sapiens), sequence (Q9H422 whole entry, looked up): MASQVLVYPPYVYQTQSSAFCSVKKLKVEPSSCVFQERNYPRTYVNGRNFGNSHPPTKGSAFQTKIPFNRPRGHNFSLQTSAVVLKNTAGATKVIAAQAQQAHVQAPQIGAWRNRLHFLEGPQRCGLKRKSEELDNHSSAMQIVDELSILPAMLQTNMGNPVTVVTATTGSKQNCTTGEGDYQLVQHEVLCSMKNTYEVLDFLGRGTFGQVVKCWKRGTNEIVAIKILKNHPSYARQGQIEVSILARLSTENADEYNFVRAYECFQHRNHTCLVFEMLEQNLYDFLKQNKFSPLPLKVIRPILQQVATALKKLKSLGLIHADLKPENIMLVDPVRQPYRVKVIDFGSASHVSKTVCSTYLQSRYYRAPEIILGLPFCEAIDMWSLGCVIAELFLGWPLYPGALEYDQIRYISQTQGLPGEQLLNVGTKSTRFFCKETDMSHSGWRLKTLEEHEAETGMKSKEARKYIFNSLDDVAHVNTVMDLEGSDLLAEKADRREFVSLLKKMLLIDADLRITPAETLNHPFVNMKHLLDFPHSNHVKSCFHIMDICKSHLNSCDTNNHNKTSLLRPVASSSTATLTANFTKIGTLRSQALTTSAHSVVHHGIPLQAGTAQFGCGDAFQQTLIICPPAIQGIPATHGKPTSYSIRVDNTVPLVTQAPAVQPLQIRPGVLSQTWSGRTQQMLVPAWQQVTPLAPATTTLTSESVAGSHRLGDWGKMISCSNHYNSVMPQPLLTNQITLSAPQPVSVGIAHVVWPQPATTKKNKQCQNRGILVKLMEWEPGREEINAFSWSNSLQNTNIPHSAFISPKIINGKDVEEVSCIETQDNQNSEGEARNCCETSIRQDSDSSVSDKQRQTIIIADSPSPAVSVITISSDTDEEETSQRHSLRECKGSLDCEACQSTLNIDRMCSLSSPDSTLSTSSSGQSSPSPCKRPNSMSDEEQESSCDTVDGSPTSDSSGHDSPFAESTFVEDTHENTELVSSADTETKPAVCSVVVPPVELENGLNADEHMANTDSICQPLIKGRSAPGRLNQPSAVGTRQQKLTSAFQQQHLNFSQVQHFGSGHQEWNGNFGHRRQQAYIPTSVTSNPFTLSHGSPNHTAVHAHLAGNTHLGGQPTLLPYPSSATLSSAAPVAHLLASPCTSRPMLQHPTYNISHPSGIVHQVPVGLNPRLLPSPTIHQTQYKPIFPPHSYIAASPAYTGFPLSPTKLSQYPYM
Serine/threonine-protein kinase NIM1 (Homo sapiens), sequence (Q8IY84 whole entry): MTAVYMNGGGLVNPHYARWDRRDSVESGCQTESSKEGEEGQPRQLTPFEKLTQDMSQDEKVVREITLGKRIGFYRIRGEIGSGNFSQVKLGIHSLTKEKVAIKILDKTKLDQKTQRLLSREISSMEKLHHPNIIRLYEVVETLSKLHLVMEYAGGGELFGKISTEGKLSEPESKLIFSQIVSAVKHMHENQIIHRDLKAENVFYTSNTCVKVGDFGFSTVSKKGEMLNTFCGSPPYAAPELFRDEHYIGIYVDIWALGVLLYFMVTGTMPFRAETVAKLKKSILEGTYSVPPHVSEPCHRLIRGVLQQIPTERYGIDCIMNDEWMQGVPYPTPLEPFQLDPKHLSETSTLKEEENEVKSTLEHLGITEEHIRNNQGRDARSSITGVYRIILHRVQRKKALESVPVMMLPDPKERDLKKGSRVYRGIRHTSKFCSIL
RAC-gamma serine/threonine-protein kinase (Homo sapiens), sequence (Q9Y243 whole entry): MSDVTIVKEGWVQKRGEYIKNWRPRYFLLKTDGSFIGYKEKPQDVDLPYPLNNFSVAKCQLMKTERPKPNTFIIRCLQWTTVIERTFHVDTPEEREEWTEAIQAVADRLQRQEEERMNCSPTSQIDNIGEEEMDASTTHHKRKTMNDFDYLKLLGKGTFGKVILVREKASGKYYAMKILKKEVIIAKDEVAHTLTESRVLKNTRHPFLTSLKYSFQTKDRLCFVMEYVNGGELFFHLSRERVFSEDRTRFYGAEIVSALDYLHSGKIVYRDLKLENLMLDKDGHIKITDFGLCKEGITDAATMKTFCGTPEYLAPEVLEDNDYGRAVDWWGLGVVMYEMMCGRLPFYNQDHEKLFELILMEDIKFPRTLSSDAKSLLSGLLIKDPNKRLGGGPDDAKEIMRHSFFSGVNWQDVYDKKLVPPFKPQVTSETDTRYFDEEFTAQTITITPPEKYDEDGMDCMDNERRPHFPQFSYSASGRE

Q: What does the source list for `O=C(NC[C@@H]1[C@H]2CN(C(=O)OCc3cc(C(F)(F)F)cc(C(F)(F)F)c3)C[C@@H]12)c1ccc2[nH]nnc2c1` [BI 2545]?
A: residual activity [1]: 100%; residual activity [2]: 100%; residual activity [3]: 71%; residual activity [4]: 80%; residual activity [5]: 100%; inhibition [6]: 28.9%; residual activity [7]: 95%; residual activity [8]: 88%; residual activity [9]: 100%; residual activity [10]: 100%; residual activity [11]: 100%; residual activity [12]: 90%; residual activity [13]: 84%; residual activity [14]: 85%; residual activity [15]: 72%; residual activity [16]: 91%; residual activity [17]: 89%; residual activity [18]: 91%; residual activity [19]: 100%; residual activity [20]: 85%; residual activity [21]: 93%; residual activity [22]: 93%; residual activity [23]: 90%; residual activity [24]: 100%; residual activity [25]: 95%; inhibition [26]: 39.5%; residual activity [27]: 100%; residual activity [28]: 100%; residual activity [29]: 100%; inhibition [30]: -1.41%; residual activity [31]: 100%; residual activity [32]: 90%; residual activity [33]: 87%; residual activity [34]: 89%; residual activity [35]: 92%; residual activity [36]: 100%; residual activity [37]: 100%; residual activity [38]: 88%; residual activity [39]: 93%; residual activity [40]: 86%; residual activity [41]: 100%; residual activity [42]: 83%; residual activity [43]: 100%; inhibition [44]: 51.4%; residual activity [45]: 97%; residual activity [46]: 100%

Q: With `Cc1nccc(COC(=O)N2C[C@@H]3[C@@H](CNC(=O)c4ccc5[nH]nnc5c4)[C@@H]3C2)n1` [BI 3017] as the compound, how does the residual activity [1] read?
A: The residual activity was 99%.

Q: What about the residual activity [2] of the same compound?
A: The residual activity was 92%.

Q: And the residual activity [3]?
A: The residual activity was 100%.

Q: What about the residual activity [4] of the same compound?
A: Its residual activity is 94%.

Q: What about the residual activity [5] of the same compound?
A: The residual activity was 90%.

Q: And the inhibition [6]?
A: The inhibition was 26.1%.

Q: What about the residual activity [7] of the same compound?
A: The residual activity was 100%.

Q: And the residual activity [8]?
A: Its residual activity is 83%.

Q: What about the residual activity [9] of the same compound?
A: Its residual activity is 75%.

Q: And the residual activity [10]?
A: Its residual activity is 93%.

Q: And the residual activity [11]?
A: The residual activity was 100%.

Q: What about the residual activity [12] of the same compound?
A: Its residual activity is 70%.

Q: What about the residual activity [13] of the same compound?
A: The residual activity was 94%.

Q: What about the residual activity [14] of the same compound?
A: The residual activity was 100%.

Q: What about the residual activity [15] of the same compound?
A: Its residual activity is 100%.

Q: What about the residual activity [16] of the same compound?
A: Its residual activity is 100%.

Q: What about the residual activity [17] of the same compound?
A: The residual activity was 76%.

Q: What about the residual activity [18] of the same compound?
A: The residual activity was 100%.

Q: And the residual activity [19]?
A: Its residual activity is 74%.

Q: What about the residual activity [20] of the same compound?
A: Its residual activity is 100%.

Q: What about the residual activity [21] of the same compound?
A: The residual activity was 95%.

Q: And the residual activity [22]?
A: The residual activity was 91%.

Q: And the residual activity [23]?
A: Its residual activity is 100%.

Q: What about the residual activity [24] of the same compound?
A: Its residual activity is 79%.

Q: What about the residual activity [25] of the same compound?
A: The residual activity was 97%.

Q: And the inhibition [26]?
A: The inhibition was 7.45%.

Q: And the residual activity [27]?
A: The residual activity was 93%.

Q: And the residual activity [28]?
A: The residual activity was 100%.

Q: And the residual activity [29]?
A: Its residual activity is 78%.

Q: And the inhibition [30]?
A: The inhibition was -6.43%.

Q: What about the residual activity [31] of the same compound?
A: The residual activity was 87%.

Q: And the residual activity [32]?
A: The residual activity was 79%.

Q: And the residual activity [33]?
A: Its residual activity is 100%.

Q: And the residual activity [34]?
A: The residual activity was 71%.

Q: And the residual activity [35]?
A: Its residual activity is 85%.

Q: What about the residual activity [36] of the same compound?
A: Its residual activity is 92%.

Q: And the residual activity [37]?
A: The residual activity was 99%.

Q: And the residual activity [38]?
A: Its residual activity is 100%.

Q: And the residual activity [39]?
A: Its residual activity is 100%.

Q: And the residual activity [40]?
A: The residual activity was 90%.

Q: And the residual activity [41]?
A: Its residual activity is 100%.

Q: What about the residual activity [42] of the same compound?
A: The residual activity was 85%.

Q: What about the residual activity [43] of the same compound?
A: The residual activity was 100%.

Q: And the inhibition [44]?
A: Its inhibition is 7.65%.

Q: And the residual activity [45]?
A: The residual activity was 77%.

Q: And the residual activity [46]?
A: The residual activity was 100%.
